In patent US20230339865A1, “QUINAZOLINE-DERIVED HCK INHIBITORS FOR USE IN THE TREATMENT OF MYD88 MUTATED DISEASES” (Dana-Farber Cancer Institute, Inc., priority 2020, published 2023):

Assays:
[1] = microsome stability (mouse); format: in vitro ADME; conditions: microsomes, read-out: microsome stability (T1/2, min)
Protocol: (§1) The compounds were tested against several different cell lines, and the ED50 values determined, along with the microsome stability.

[2] = molecular target: T1, MAPK14 (p38 alpha) Direct (Homo sapiens, UniProt Q16539); experiment: Invitrogen kinase assay MAPK14 (p38 alpha) Direct; format: biochemical
T1 construct: purchased Invitrogen
T1 sequence (Q16539 whole entry): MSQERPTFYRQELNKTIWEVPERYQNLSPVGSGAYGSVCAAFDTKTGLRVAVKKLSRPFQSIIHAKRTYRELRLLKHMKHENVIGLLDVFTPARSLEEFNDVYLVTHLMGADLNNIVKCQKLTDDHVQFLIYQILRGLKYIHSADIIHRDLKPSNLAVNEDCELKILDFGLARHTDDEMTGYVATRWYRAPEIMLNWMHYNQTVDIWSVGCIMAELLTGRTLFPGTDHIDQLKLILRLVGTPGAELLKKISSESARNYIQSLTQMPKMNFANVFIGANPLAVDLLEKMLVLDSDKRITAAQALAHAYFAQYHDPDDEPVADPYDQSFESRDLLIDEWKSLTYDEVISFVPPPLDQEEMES
Protocol: (§2) The IC50 values were also determined for Compound (I-1) using an Invitrogen kinase assay. The results are shown in Table 2, along with comparison data with TL2-059.

[3] = molecular target: T2, ABL1 (Homo sapiens, UniProt P00519); experiment: Invitrogen kinase assay ABL1; format: biochemical
T2 construct: purchased Invitrogen
Protocol: as §2

[4] = molecular target: T3, HCK (Homo sapiens, UniProt P08631); experiment: HCK inhibition in MYD88 mutated cells; format: cell-based; conditions: MYD88 mutated WM and ABC DLBCL cell lines and primary WM cells
T3 sequence (P08631 whole entry): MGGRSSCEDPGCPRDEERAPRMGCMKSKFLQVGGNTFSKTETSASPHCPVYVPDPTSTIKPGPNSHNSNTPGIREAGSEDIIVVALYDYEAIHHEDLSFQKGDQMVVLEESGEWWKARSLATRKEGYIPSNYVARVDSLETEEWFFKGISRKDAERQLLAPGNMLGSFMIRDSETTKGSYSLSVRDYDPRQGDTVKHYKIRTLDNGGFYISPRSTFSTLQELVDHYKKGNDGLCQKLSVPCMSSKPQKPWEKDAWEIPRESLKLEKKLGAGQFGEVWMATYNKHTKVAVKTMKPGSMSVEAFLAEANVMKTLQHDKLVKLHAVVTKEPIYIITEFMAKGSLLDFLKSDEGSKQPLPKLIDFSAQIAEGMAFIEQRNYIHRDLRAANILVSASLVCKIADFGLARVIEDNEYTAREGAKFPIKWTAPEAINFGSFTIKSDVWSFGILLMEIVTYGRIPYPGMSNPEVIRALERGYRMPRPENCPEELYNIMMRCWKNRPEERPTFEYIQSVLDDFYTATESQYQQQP

[5] = microsome stability (rat); format: in vitro ADME; conditions: microsomes, read-out: microsome stability (T1/2, min)
Protocol: as §1

[6] = test system: healthy donor B- and T-cells; experiment: Effect on healthy donor B- and T-cells; format: cell-based
[7] = molecular target: T4, TAOK3 (JIK) (Homo sapiens, UniProt Q9H2K8); experiment: Invitrogen kinase assay TAOK3 (JIK); format: biochemical
T4 construct: purchased Invitrogen
T4 sequence (Q9H2K8 whole entry): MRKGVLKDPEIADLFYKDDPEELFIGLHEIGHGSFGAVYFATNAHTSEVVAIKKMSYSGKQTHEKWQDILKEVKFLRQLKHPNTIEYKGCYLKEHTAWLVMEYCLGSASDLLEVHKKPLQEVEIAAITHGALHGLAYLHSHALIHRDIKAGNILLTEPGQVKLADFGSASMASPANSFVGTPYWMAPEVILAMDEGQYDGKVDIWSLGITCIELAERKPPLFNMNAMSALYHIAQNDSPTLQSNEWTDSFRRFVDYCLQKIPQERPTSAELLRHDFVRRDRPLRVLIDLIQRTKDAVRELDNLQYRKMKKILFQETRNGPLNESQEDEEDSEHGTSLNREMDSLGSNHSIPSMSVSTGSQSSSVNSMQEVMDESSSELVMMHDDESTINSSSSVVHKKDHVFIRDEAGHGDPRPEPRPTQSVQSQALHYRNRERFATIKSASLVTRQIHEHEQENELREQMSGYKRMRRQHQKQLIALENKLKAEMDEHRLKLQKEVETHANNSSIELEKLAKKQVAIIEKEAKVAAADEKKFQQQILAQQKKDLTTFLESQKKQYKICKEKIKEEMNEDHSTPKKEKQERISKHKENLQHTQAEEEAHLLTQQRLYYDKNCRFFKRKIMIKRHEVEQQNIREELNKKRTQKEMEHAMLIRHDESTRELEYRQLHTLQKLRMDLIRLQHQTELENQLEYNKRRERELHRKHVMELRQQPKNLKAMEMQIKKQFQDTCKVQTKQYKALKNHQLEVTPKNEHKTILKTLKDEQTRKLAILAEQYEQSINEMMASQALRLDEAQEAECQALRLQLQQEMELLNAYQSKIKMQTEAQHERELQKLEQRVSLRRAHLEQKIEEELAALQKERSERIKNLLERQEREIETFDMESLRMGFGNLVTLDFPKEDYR
Protocol: as §2

[8] = molecular target: T5, MAP4K2 (GCK) (Homo sapiens, UniProt Q12851); experiment: Invitrogen kinase assay MAP4K2 (GCK); format: biochemical
T5 construct: purchased Invitrogen
T5 sequence (Q12851 whole entry): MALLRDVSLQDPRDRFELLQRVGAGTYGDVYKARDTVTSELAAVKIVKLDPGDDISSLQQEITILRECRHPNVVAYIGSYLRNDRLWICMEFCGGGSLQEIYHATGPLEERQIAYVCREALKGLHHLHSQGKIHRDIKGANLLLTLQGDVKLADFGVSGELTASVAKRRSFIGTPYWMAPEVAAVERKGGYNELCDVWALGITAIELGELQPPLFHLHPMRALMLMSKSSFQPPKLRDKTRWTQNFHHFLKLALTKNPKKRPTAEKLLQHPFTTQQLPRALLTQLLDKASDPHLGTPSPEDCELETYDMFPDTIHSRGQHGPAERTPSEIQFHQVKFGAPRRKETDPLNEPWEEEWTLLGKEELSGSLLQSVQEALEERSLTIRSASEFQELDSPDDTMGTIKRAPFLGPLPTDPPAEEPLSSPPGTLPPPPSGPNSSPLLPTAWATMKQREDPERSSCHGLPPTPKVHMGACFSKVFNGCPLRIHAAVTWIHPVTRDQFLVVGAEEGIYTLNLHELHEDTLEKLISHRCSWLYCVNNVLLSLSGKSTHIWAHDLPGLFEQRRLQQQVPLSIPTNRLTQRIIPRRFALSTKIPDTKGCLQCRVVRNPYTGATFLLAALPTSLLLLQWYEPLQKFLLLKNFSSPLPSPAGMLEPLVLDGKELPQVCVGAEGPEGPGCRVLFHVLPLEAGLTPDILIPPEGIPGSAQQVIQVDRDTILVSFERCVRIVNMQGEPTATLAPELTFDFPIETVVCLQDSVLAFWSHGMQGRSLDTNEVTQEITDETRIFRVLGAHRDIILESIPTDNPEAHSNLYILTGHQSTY
Protocol: as §2

[9] = molecular target: T6, LCK (Homo sapiens, UniProt P06239); experiment: Invitrogen kinase assay LCK; format: biochemical
T6 construct: purchased Invitrogen
T6 sequence (P06239 whole entry): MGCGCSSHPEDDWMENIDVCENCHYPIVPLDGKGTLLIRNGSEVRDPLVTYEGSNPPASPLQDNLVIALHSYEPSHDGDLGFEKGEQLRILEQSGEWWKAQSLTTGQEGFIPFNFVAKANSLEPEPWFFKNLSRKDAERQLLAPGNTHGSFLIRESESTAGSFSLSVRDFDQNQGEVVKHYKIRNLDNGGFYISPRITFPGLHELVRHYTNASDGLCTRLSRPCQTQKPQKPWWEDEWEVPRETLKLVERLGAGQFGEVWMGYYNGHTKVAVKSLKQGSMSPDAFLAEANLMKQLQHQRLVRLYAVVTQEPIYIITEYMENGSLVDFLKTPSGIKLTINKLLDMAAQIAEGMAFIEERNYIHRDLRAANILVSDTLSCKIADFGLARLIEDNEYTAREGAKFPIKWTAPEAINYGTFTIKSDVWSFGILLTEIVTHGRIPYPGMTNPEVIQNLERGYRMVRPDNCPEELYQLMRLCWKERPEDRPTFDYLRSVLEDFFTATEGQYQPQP
Protocol: as §2

[10] = molecular target: T7, SRC (Homo sapiens, UniProt P12931); experiment: Invitrogen kinase assay SRC; format: biochemical
T7 construct: purchased Invitrogen
Protocol: as §2

[11] = molecular target: T8, FER (Homo sapiens, UniProt P16591); experiment: Invitrogen kinase assay FER; format: biochemical
T8 construct: purchased Invitrogen
Protocol: as §2

[12] = test system: MYD88 mutated ABC DLBCL TMD8 xenograft; experiment: In-vivo rat efficacy study in MYD88 mutated ABC DLBCL TMD8 xenografted rats
Protocol: Example 1. In-Vivo Rat Efficacy Study in MYD88 Mutated ABC DLBCL TMD8 Xenografted Rats
A rat efficacy study for was carried out with Compound (I-1) using an MYD88 mutated ABC DLBCL TMD8 xenografted rat model.

[13] = molecular target: T9, TAOK2 (TAO1) (Homo sapiens, UniProt Q9UL54); experiment: Invitrogen kinase assay TAOK2 (TAO1); format: biochemical
T9 construct: purchased Invitrogen
Protocol: as §2

[14] = molecular target: T3, HCK; experiment: Invitrogen kinase assay HCK; format: biochemical; design: purchased Invitrogen
Protocol: as §2

[15] = molecular target: T10, LYN A (Homo sapiens, UniProt P07948); experiment: Invitrogen kinase assay LYN A; format: biochemical
T10 construct: purchased Invitrogen
Protocol: as §2

[16] = molecular target: T11, FYN (Homo sapiens, UniProt P06241); experiment: Invitrogen kinase assay FYN; format: biochemical
T11 construct: purchased Invitrogen
Protocol: as §2

[17] = test system: MYD88 mutated WM and ABC DLBCL cell lines, primary WM cells; experiment: Apoptotic effects in MYD88 mutated cells; format: cell-based; conditions: vs. ibrutinib or A419259
[18] = microsome stability (human); format: in vitro ADME; conditions: microsomes, read-out: microsome stability (T1/2, min)
Protocol: as §1

[19] = molecular target: T12, TAOK1 (Homo sapiens, UniProt Q7L7X3); experiment: Invitrogen kinase assay TAOK1; format: biochemical
T12 construct: purchased Invitrogen
T12 sequence (Q7L7X3 whole entry): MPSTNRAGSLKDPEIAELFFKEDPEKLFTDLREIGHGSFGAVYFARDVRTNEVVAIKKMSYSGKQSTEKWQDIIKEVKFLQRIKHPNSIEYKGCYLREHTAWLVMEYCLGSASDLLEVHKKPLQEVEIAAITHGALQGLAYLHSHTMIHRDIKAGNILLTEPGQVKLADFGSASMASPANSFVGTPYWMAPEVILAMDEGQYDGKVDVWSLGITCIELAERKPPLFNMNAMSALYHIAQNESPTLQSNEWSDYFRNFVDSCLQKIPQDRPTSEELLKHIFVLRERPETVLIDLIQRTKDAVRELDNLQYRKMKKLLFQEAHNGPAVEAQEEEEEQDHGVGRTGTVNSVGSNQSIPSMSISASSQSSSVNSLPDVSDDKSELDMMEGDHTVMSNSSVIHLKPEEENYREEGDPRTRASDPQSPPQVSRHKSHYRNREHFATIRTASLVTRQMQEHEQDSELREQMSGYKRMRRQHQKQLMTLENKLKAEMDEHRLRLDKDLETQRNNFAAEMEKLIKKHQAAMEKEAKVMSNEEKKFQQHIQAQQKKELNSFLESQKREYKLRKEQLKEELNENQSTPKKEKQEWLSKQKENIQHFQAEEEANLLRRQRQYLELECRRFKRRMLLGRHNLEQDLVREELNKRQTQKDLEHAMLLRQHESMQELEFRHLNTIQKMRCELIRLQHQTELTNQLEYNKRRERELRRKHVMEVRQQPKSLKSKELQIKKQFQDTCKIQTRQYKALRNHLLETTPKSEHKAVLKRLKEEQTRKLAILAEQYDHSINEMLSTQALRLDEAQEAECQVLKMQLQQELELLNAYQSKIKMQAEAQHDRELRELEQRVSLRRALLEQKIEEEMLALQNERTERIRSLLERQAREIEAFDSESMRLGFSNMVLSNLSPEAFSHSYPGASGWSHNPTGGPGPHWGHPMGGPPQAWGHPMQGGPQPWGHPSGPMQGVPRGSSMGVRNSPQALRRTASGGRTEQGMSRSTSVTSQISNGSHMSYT
Protocol: as §2

[20] = molecular target: T13, FGR (Homo sapiens, UniProt P09769); experiment: Invitrogen kinase assay FGR; format: biochemical
T13 construct: purchased Invitrogen
Protocol: as §2

[21] = molecular target: T14, ABL2 (Arg) (Homo sapiens, UniProt P42684); experiment: Invitrogen kinase assay ABL2 (Arg); format: biochemical
T14 construct: purchased Invitrogen
Protocol: as §2

[22] = test system: HCK, BTK, and NFκB; experiment: Pharmacodynamic studies in mice; format: in vivo
[23] = molecular target: T15, FES (FPS) (Homo sapiens, UniProt P07332); experiment: Invitrogen kinase assay FES (FPS); format: biochemical
T15 construct: purchased Invitrogen
Protocol: as §2

[24] = molecular target: T16, MAP3K7/MAP3K7IP1 (TAK1-TAB1) (Homo sapiens, UniProt O43318); experiment: Invitrogen kinase assay MAP3K7/MAP3K7IP1 (TAK1-TAB1); format: biochemical
T16 construct: purchased Invitrogen
Protocol: as §2

[25] = molecular target: T17, MAP4K1 (HPK1) (Homo sapiens, UniProt Q92918); experiment: Invitrogen kinase assay MAP4K1 (HPK1); format: biochemical
T17 construct: purchased Invitrogen
T17 sequence (Q92918 whole entry): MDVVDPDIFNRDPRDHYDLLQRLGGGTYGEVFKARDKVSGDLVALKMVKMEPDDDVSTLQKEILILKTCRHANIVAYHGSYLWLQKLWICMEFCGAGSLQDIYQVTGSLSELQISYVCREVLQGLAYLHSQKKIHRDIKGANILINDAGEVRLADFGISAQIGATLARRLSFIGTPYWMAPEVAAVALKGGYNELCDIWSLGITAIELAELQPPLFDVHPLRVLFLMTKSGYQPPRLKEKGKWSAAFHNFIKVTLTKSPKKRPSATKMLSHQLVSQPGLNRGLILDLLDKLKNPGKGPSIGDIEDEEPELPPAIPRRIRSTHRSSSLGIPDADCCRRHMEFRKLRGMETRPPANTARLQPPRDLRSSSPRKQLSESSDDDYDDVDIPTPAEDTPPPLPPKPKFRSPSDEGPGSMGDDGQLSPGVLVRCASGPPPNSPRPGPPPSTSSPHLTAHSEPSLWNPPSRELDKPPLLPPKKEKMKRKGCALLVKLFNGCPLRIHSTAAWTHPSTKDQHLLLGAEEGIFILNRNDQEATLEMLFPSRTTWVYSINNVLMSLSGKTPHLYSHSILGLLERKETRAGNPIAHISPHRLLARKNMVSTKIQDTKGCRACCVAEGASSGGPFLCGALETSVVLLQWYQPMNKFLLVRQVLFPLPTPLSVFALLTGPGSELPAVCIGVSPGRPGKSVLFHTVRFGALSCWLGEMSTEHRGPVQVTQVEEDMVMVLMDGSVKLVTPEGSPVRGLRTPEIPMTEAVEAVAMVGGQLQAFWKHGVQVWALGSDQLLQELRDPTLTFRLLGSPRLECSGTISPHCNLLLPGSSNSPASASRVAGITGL
Protocol: as §2

For `COc1cc2c(Oc3cc(C(=O)Nc4cccc(C(F)(F)F)c4)ccc3C)ncnc2cc1NCCN1CCN(C)CC1` [Compound (I-4), 3-(6-methoxy-7-(2-(4-methylpiperazin-1-yl)ethylamino)quinazolin-4-yloxy)-4-methyl-N-(3-(trifluoromethyl)phenyl)benzamide], which half-life [1] is on record?
Its half-life is 5.7 min.

Which half-life [1] does the source give for `CCN1CCN(Cc2ccc(NC(=O)c3ccc(C)c(Oc4ncnc5cc(NC)ccc45)c3)cc2C(F)(F)F)CC1` [Compound (I-14), N-(4-((4-ethylpiperazin-1-yl)methyl)-3-(trifluoromethyl)phenyl)-4-methyl-3-(7-(methylamino)quinazolin-4-yloxy)benzamide] here?
The half-life was 20.4 min.

With `CCN1CCN(Cc2ccc(NC(=O)c3ccc(C)c(Oc4ncnc5cc(NC)c(OC)cc45)c3)cc2C(F)(F)F)CC1` [Compound (I-1), N-(4-((4-ethylpiperazin-1-yl)methyl)-3-(trifluoromethyl)phenyl)-3-(6-methoxy-7-(methylamino)quinazolin-4-yloxy)-4-methylbenzamide] as the compound, how does the IC50 [2] read?
The IC50 was 79.7 nM.

What about the IC50 [3] of the same compound?
Its IC50 is 32.3 nM.

And the HCK inhibition [4]?
The HCK inhibition was “inhibits HCK in a dose dependent Type II inhibition”.

What about the half-life [5] of the same compound?
The half-life was 60.2 min.

And the “effect on healthy donor B- and T-cells” value [6]?
Its value is “sparing of healthy donor B- and T-cells”.

What about the IC50 [7] of the same compound?
Its IC50 is 413 nM.

What about the IC50 [8] of the same compound?
The IC50 was 8.35 nM.

What about the IC50 [9] of the same compound?
Its IC50 is 4.73 nM.

What about the IC50 [10] of the same compound?
Its IC50 is 77.5 nM.

What about the IC50 [11] of the same compound?
Its IC50 is 9.81 nM.

And the “Mean tumor volume compared to vehicle” value ([12]; 30 mg/kg, TMD8 xenografted rat model)?
Its value is “lower Mean tumor volume compared to vehicle”.

And the survival days ([12]; TMD8 xenograft model, vehicle 22 survival days)?
The survival days was 43 days.

And the IC50 [13]?
Its IC50 is 61.3 nM.

What about the IC50 [14] of the same compound?
Its IC50 is 7.39 nM.

And the IC50 [15]?
The IC50 was 8.77 nM.

And the half-life [1]?
Its half-life is 42.4 min.

And the IC50 [16]?
The IC50 was 419 nM.

And the apoptotic effects [17]?
The apoptotic effects was “potent apoptotic effects”.

What about the half-life [18] of the same compound?
Its half-life is 79.3 min.

What about the IC50 [19] of the same compound?
Its IC50 is 194 nM.

And the IC50 [20]?
The IC50 was 8.02 nM.

What about the IC50 [21] of the same compound?
Its IC50 is 45.5 nM.

And the “Pharmacodynamic inhibition of HCK, BTK, and NFκB” value [22]?
The value was “inhibition of HCK, BTK, and NFκB”.

And the tumor redistribution [22]?
Its tumor redistribution is “dose-related tumor redistribution”.

And the IC50 [23]?
Its IC50 is 11 nM.

And the IC50 [24]?
Its IC50 is 24.1 nM.

And the IC50 [25]?
Its IC50 is 11.8 nM.

Which half-life [1] does the source give for `CCN1CCN(Cc2ccc(NC(=O)c3ccc(C)c(Oc4ncnc5cc(N)c(OC)cc45)c3)cc2C(F)(F)F)CC1` [Compound (I-2), 3-(7-amino-6-methoxyquinazolin-4-yloxy)-N-(4-((4-ethylpiperazin-1-yl)methyl)-3-(trifluoromethyl)phenyl)-4-methylbenzamide] here?
Its half-life is 41.7 min.

With `CCN1CCN(Cc2ccc(NC(=O)c3ccc(C)c(Oc4ncnc5cc6[nH]cnc6cc45)c3)cc2C(F)(F)F)CC1` [Compound (I-16), 3-(3H-imidazo[4,5-g]quinazolin-8-yloxy)-N-(4-((4-ethylpiperazin-1-yl)methyl)-3-(trifluoromethyl)phenyl)-4-methylbenzamide] as the compound, how does the half-life [1] read?
The half-life was 8.6 min.
